Experimental findings from patent US20200215099A1, “NON-ANTICOAGULANT SULFATED OR SULFONATED POLYSACCHARIDES” (Baxalta Incorporated, priority 2012, published 2020) are described below.

One data set has as its target T1, full-length TFPI (Homo sapiens, UniProt P10646).
T1 construct: 0.5 μg/mL full-length TFPI (aa 1-276, constitutively produced by SKHep1); made in house; host or cells: SKHep1
T1 sequence (P10646 29-304): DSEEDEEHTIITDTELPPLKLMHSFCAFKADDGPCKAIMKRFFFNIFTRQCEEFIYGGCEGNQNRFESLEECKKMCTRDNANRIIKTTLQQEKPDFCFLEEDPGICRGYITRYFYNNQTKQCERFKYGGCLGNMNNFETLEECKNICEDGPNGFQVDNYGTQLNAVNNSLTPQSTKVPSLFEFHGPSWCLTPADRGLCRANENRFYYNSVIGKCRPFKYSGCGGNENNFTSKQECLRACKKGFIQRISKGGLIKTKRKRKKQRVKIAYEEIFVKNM
In words: Dilute prothrombin time assay with added TFPI (TFPI-dPT). The data set is classed as biochemical. Conditions: normal human plasma. How it is done: A dilute prothrombin time assay with added TFPI (TFPI-dPT) was used to evaluate the TFPI-inhibiting effect of the different NASPs. Pooled normal human plasma (George King Biomedical, Overland Park, Kans.) was pre-incubated with 0.5 μg/mL full-length TFPI (aa 1-276, constitutively produced by SKHep1) and the respective NASP (0-5 μg/mL) for 15 min at RT. TF reagent TriniClot PT Excel S (Trinity Biotech, Wicklow, Ireland), diluted in Hepes-buffered saline 1:200 with 0.5% BSA was added to the plasma samples on an ACL Pro Elite hemostasis analyzer (Instrumentation Laboratory, Bedford, Mass.). Clotting was initiated with 25 mM CaCl2). The volume ratio of plasma:TF:CaCl2 was 1:1:1.
For data analysis, TFPI-dPT is plotted against the log concentration. Half maximal effective concentrations (EC50) values are determined using a sigmoidal curve fit.

In a further data set the test system is contact pathway. In words: CAT in normal plasma with and without CTI. In kind it is biochemical. Conditions: normal plasma, 1 pM hTF, 4 μM PL, ±41 μg/mL CTI.
Data set [1] deals with FVIII-inhibited human whole blood. In words: Rotation thromboelastometry (ROTEM). As to conditions: for Activity: normal blood 100, FVIII-inh. blood 0. The procedure:
NASPs (0.4-11 μg/mL) were studied in fresh citrated human whole blood by rotation thromboelastometry (ROTEM), an assay that allows continuous visco-elastic assessment of whole blood clot formation and firmness. Blood was incubated with anti-human FVIII plasma raised in goat (Baxter Bioscience, Austria) at 50 BU/mL to simulate hemophilic conditions. Clotting was triggered with 0.044 pM tissue factor (TF) (PRP reagent, Thrombinoscope BV) in the presence of 40 μg/mL CTI (Haematologic Technologies Inc., Essex Junction, Vt., USA). Then 300 μL of the pre-warmed (37° C.) FVIII-inhibited blood was recalcified with 20 μL of a 0.2 M CaCl2 solution. Clot formation was monitored using a ROTEM instrument (Pentapharm Munich, Germany) at 37° C. The final assay concentration of rTF was 44 fM. The ROTEM recording was started immediately and measured for at least 120 min. Each blood sample was analyzed in two independent measurements.
The thromboelastographic parameters of clotting time (CT), clot formation time (CFT) and maximum clot firmness (MCF) were recorded in accordance with the manufacturer's instructions. The first derivative of the thromboelastogram data is plotted to obtain a graph of velocity (mm/s) against time (s). From this graph, the maximum velocity (maxV) and the time at which the maximum velocity is reached (maxV-t) are also determined.

Data set [2] concerns FVIII-inhibited guinea pigs. Put plainly: Ex-vivo whole blood TEG in FVIII-inhibited guinea pigs. Set-up: species or system guinea pig. How it is done:
Male Dunkin Hartley guinea pigs were intravenously injected with a goat anti-human FVIII inhibitor plasma at a dose of 42 BU/kg (1.9 mL/kg) 45 min before sampling. After 40 min, NASP was intravenously administered to the animals at 0.05, 0.15, 0.45 or 1.35 mg/kg (N=5 per group). 300 U/kg FEIBA (Baxter, BioScience, Austria) served as a positive control and saline as a vehicle control. Shortly after the injection, the Vena cava was punctured and blood was collected in the presence of citrate (ratio 1:9) for whole blood TEG analysis. Measurements were performed using a thromboelastography (TEG) hemostasis analyzer 5000 (Haemonetics Corp, USA) at 37° C. Every blood sample was prepared by pre-warming 204 of a 0.2 M CaCl2) solution in a TEG cuvette at 37° C. adding 340 μL of blood, mixing, and then immediately starting the TEG recording. The measurement proceeded for at least 120 min. The TEG parameters of clotting time (R-time), rapidity of clot strengthening (angle) and maximum clot firmness (MA) were recorded. The primary endpoint R-time was plotted and the median value of the different dosing groups compared with each other.

A short description of data set [3]: Pharmacokinetics after oral administration. The data set is classed as in vivo, CD rats. How it is done:
The preparations were either unfractionated (average MW of 24 kD) or fractionated by a filter method (average MW of 14 kD). The substances were prepared in a physiological saline solution without enhancer or with 0.8 wt % DOC or with 3 wt % chitosan+0.5 mg/mL bromelain. Each group dosed with NASP consisted of six rats. For each formulation, three additional rats served as vehicle controls. Blood samples were collected in the presence of citrate (ratio 1:9) before dosing and 15, 30 min, 1, 5, and 7 h after the dosing. Platelet-poor plasma was prepared by two centrifugation steps at 3000 rpm for 10 min.
The NASPs in the plasma samples were detected by a fluorescence assay that uses the dye HeparinRed that specifically binds to sulfated polysaccharides. Experiments were performed in a black half-area 96-well microtiter plate (Costar). For the S-6-CI standard curves (0.185 to 2.5 μg/mL), 10 μL of rat plasma was spiked with 5 μL of S-6-CI and mixed with 40 μL of human pooled plasma to minimize the matrix effect of individual animals. Then 5 μl HeparinRed dye was added and incubated in the dark at RT for 5 min. Plasma samples of the dosed animals were treated accordingly, however, the 5 μL S-6-CI were replaced by buffer. Fluorescent signals were detected with a Tecan Safire2™ microplate fluorescence reader (Ex/Em 580/620 nm) and the S-6-CI quantified based on the S-6-CI standard curve. […]

Regarding sulfated 6-carboxy-icodextrin, the “reversal of the effect of rec. FL-TFPI (in words)” value at full-length TFPI was “reverses the anticoagulant effect of exogenous full-length TFPI”. The “concentration activating the contact pathway” value with contact pathway is > 33000 ng/mL. In data set [1] (+0.41 μg/ml), this substance came in with a CFT of 388 s, a CT of 1542 s, an MCF of 62 mm and an Activity of 108%. Further, in data set [1] (+1.23 μg/ml), the CFT is on record as 172 s, the CT was 1078 s, the MCF is 63.5 mm and the Activity is 129%. In data set [1] (+3.7 μg/ml), this substance showed a CFT of 223 s, a CT of 1152 s, an MCF of 63 mm and an Activity of 125%. Also, in data set [1] (+11.1 μg/ml), the CFT was 934 s, the CT worked out at 2526 s and the Activity is given as 63%. Moreover, the “restoration of coagulation (in words)” value in data set [1] (ROTEM, 0.044 pM TF) was “restores coagulation in FVIII-inhibited whole blood”. The “median R-time (clotting time)” value in data set [2] (0.15 and 0.45 mg/kg i.v., no clotting after 2 hours without treatment) turned out to be 110 min. In data set [2] (TEG five minutes after i.v. administration, NASP at 0.15 and 0.45 mg/kg), the “procoagulant effect, reduction in R-time (in words)” value is given as “procoagulant effect superior to vehicle control”. For the same substance, the “time of highest plasma level after dosing” value in data set [3] (oral 50 mg/kg) came to 60 min. For the same substance, the “plasma levels at all time points” value in data set [3] (oral 50 mg/kg with chitosan+bromelain) was < 300 ng/mL.
